Consider three compounds from patent US20180360810A1, “NUPHARIDINE COMPOUNDS AND DERIVATIVES THEREOF FOR THE TREATMENT OF CYSTEINE PROTEASE RELATED DISEASES” (B. G. NEGEV TECHNOLOGIES AND APPLICATIONS LTD., AT …, priority 2015, published 2018).

Common to all, as to type: biochemical
For one assay, the target named is T1, Human Cathepsin S (Homo sapiens, UniProt P25774).
T1 construct: purchased
Nature of the assay: Cathepsin S fluorometric inhibition assay. The note with it: substrate ES002; pH 4.5; molarity calculated on assumed molecular weight of 526 daltons; read-out: IC50 (Nanomolar). The protocol: (§1) Inhibition assays were performed in triplicates using 96 well plates transparent for Calpain, Trypsin, Papain, Cathepsin L and Cathepsin B (167008; Nunc, Roskilde, Denmark), or black for Cathepsin S, Cathepsin D and Insulyzin (ide) (Greiner 96 Polystyrol GRE96fb) according to manufacturers' instructions. Briefly, reaction mixture of 100 μl contained: 45 μl of enzyme in assay buffer, 5 μl of inhibitors diluted in DMSO. 50 μl substrate prepared in assay buffer according to manufacturers' instructions. The inhibitor was serially diluted in DMSO to concentrations from 0.0075 μg/μL to 0.0000075 μg/μL. 5 μl DMSO was added to control sample. Cathepsin substrate mix was added last just before starting the fluorometric measurement. Data was collected for 1.5 h at 60 sec intervals. Molarity of inhibitors were calculated based on assumed molecular weight of 526 daltons as a reference value for comparative evaluations.

A further assay has as its target T2, Human Cathepsin L (Homo sapiens, UniProt P07711).
T2 construct: purchased
Kind of assay: Cathepsin L fluorometric inhibition assay. The note with it: substrate Ac-FR-AFC; CTSL Assay Buffer; molarity calculated on assumed molecular weight of 526 daltons; read-out: IC50 (Nanomolar). The protocol: as §1

A further assay has as its target T3, Human rCathepsin D (Homo sapiens, UniProt P07339).
T3 construct: purchased
Nature of the assay: Cathepsin D fluorometric inhibition assay. The settings on record: substrate ES001; pH 3.5; molarity calculated on assumed molecular weight of 526 daltons; read-out: IC50 (Nanomolar). Here is the method: as §1

The target of the next assay is T4, Human Insulyzin (ide) (Homo sapiens, UniProt P14735).
T4 construct: purchased
T4 sequence (P14735 1-1019): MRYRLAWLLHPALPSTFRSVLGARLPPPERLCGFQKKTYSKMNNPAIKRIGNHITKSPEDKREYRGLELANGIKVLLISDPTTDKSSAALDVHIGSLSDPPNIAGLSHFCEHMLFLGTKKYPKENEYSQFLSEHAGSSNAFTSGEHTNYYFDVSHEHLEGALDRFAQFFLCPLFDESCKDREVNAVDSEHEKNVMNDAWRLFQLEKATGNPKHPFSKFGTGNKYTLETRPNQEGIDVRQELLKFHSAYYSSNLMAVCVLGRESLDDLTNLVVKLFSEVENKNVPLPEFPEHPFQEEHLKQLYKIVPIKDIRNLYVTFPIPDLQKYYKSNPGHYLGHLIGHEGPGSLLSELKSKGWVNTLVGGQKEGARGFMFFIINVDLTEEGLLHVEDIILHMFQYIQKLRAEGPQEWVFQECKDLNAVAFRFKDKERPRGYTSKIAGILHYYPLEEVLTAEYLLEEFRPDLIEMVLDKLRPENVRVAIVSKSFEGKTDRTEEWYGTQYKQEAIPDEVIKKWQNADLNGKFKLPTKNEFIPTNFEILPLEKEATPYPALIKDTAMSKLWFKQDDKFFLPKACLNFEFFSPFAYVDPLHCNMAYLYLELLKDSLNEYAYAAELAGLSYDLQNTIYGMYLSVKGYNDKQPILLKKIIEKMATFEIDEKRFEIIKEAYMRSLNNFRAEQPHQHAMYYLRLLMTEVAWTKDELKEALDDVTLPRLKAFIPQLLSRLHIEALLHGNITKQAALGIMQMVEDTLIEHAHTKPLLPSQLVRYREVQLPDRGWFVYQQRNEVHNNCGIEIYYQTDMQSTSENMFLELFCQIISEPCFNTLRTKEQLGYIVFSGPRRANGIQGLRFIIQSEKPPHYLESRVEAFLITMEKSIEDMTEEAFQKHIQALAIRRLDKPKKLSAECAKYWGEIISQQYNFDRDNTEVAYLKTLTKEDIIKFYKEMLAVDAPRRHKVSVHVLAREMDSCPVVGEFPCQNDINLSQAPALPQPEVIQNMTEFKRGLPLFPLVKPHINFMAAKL
Nature of the assay: Insulyzin (ide) fluorometric inhibition assay. The note with it: substrate ES005; pH 7.5; molarity calculated on assumed molecular weight of 526 daltons; read-out: IC50 (Nanomolar). The protocol: as §1

The target in the next assay is T5, Human Cathepsin B (Homo sapiens, UniProt P07858).
T5 construct: purchased
Kind of assay: Cathepsin B inhibition assay, Casein FITC. The note with it: substrate Casein FITC; pH 6.5; molarity calculated on assumed molecular weight of 526 daltons; read-out: IC50 (Nanomolar). Here is the method:
as §1

A further assay relates to Trypsin. Nature of the assay: Trypsin inhibition assay, Casein FITC. The note with it: substrate Casein FITC; 0.3M potassium chloride, 0.1 mM EDTA, 3 mM DTT pH 6.5. The protocol:
as §1
The specificity of the reaction was tested by treatment of trypsin, a serine protease with the above mentioned compounds and no inhibitory activity was found (as shown in FIG. 2).

For the next assay, the system named is Calpain. Kind of assay: Calpain inhibition assay, Casein FITC. The settings on record: substrate Casein FITC; 0.3M potassium chloride, 0.1 mM EDTA, 3 mM DTT pH 6.5, 2 mM CaCl2. The protocol: as §1
The next assay concerns the target T6, papain (Carica papaya, UniProt P00784).
T6 sequence (P00784 134-345): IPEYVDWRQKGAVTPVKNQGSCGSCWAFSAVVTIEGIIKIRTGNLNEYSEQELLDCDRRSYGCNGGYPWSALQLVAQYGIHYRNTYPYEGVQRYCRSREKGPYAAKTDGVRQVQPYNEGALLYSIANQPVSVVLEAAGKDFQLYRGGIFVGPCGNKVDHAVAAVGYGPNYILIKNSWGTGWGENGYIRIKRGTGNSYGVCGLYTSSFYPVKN
Nature of the assay: Protease Fluorescent Detection Kit, inhibition of papain activity. The settings on record: FITC-labeled casein substrate; 10 μg papain in 50 μL; various concentrations of inhibitor. The protocol:
The Protease Fluorescent Detection Kit of Sigma Aldrich was used for measurement of protease activity using fluorometry. In exemplary embodiments, the method is based on the proteolytic hydrolysis of a proprietary formulation of a FITC-labeled casein substrate. The reaction mixture contained in a final volume of 50 μL, 10 μg papain and various concentrations of the candidate inhibitor.

T3 sequence (P07339 65-412): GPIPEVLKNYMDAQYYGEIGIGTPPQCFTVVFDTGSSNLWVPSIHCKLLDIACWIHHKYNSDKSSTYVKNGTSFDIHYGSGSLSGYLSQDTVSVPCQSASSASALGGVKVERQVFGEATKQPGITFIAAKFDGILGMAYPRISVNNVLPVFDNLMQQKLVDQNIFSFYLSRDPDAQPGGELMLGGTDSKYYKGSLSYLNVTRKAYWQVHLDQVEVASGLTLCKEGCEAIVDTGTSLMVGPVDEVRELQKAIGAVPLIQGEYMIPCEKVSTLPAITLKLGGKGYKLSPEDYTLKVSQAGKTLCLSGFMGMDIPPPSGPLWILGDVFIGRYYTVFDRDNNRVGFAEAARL
T2 sequence (P07711 114-333): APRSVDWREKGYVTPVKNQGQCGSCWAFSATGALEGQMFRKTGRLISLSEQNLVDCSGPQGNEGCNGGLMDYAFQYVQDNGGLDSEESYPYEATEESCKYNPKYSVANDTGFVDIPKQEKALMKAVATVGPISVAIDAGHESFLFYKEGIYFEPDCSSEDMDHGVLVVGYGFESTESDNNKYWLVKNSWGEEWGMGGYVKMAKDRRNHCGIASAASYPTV
T1 sequence (P25774 115-331): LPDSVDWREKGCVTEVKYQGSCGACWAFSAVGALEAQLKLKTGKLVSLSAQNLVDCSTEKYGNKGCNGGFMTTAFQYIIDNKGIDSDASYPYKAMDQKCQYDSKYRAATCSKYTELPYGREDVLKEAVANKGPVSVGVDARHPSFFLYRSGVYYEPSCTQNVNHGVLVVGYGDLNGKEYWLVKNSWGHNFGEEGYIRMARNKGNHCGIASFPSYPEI

As for “6 6′dihydroxybinupharidine [Nup-3 sigma]”, the concentration for half-maximal inhibition (IC50) is 0.08 nM on Human Cathepsin S; 0.266 nM at Human Cathepsin L; 0.07 nM on Human rCathepsin D; 0.33 nM on Human Insulyzin (ide); 21.8 nM at Human Cathepsin B. The “IC50 (Microgram/ml / Nanomolar)” value with Trypsin and in the assay with Calpain was “no inhibition” throughout.

In the case of 6 hydroxybinupharidine [Nup-4 sigma], the half-maximal inhibitory concentration (IC50) on Human Cathepsin L is 0.056 nM; on Human rCathepsin D it was 0.32 nM; at Human Insulyzin (ide), 0.85 nM; at Human Cathepsin B, 29.4 nM.

Take `C1=[N+](CCCCc2ccccc2)CCCC12CC1(C=[N+](CCCCCc3ccccc3)CC1)CS2` (stereo not drawn) [6-61]: the “inhibition of papain activity (FIG. 1)” value against papain is “demonstrated an inhibition of papain activity”.

As a reminder, the IC50 is the midpoint of a concentration-inhibition curve.
